Test results: ChEMBL document CHEMBL1132045, “New growth hormone secretagogues: C-terminal modified sulfonamide-analogues of NN703” (Bioorg Med Chem Lett, 1999)

Species on record: Rattus norvegicus
Experiment: Compound was tested in vitro for growth hormone release in rat pituitary model
Type: functional

| SMILES | EC50 |
| --- | --- |
| CN(C(=O)[C@@H](Cc1ccc2ccccc2c1)N(C)C(=O)/C=C/CC(C)(C)N)[C@H](Cc1cccs1)CN(C)S(C)(=O)=O | 3 nM |
| CN(C(=O)[C@@H](Cc1ccc2ccccc2c1)N(C)C(=O)/C=C/CC(C)(C)N)[C@@H](CNS(C)(=O)=O)Cc1ccccc1 | 2.5 nM |
| CNC(=O)[C@@H](Cc1ccccc1)N(C)C(=O)[C@@H](Cc1ccc2ccccc2c1)N(C)C(=O)/C=C/CC(C)(C)N [TABIMORELIN] | 2.7 nM |
| CC(=O)NC[C@@H](Cc1ccccc1)N(C)C(=O)[C@@H](Cc1ccc2ccccc2c1)N(C)C(=O)/C=C/CC(C)(C)N | 25 nM |
| CN(C(=O)[C@@H](Cc1ccc2ccccc2c1)N(C)C(=O)/C=C/CC(C)(C)N)[C@@H](CNC(=O)CCCO)Cc1ccccc1 | 34 nM |
